GI50 and TGI data for 9 compounds are collected here from PubChem BioAssay (NCI).

The structures appear in SMILES notation. Where “and” joins values, the source holds several entries; their conditions need not be identical. Identical values can stand only once.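 Where inhibition never reached the appropriate level, the endpoint shown equals the highest concentration tested. Otherwise, values were interpolated linearly from a five-concentration, 48-hour dose response in 96-well plates. GI50 marks 50% less growth. Definition used: TGI = concentration required for complete inhibition of growth.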

Test systems include CCRF-CEM leukemia; IGROV1 ovarian; ACHN renal; K-562 leukemia; HCT-15 colon; OVCAR-4 ovarian; SNB-19 CNS; KM12 colon; SK-MEL-5 melanoma; CAKI-1 renal.
Assay in all cases: NCI-60 cell line screen, 48 h

On to `Cn1cc(-c2nonc2-c2cn(C)c3ccc(Br)cc23)c2ccccc21`, for which the GI50 with CCRF-CEM leukemia is 3.37 µM; in the assay with IGROV1 ovarian, 5.13 µM; with ACHN renal it was 4.29 µM; in the assay on K-562 leukemia, 1.08 µM; with HCT-15 colon it was 2.17 µM; in the assay with OVCAR-4 ovarian, 5.95 µM. The GI50 in the assay on SNB-19 CNS is 5.33 µM; in the assay on KM12 colon it was 2.63 µM; with SK-MEL-5 melanoma, 3.37 µM; with CAKI-1 renal, 4.33 µM. Also, the TGI in the assay on CCRF-CEM leukemia, in the assay on IGROV1 ovarian, in the assay on ACHN renal, in the assay with K-562 leukemia, in the assay on HCT-15 colon and in the assay with OVCAR-4 ovarian was more than 100 µM in each case. The TGI in the assay with SNB-19 CNS, in the assay on KM12 colon, in the assay on SK-MEL-5 melanoma and with CAKI-1 renal was more than 100 µM throughout.
As to `CC1OC(OC2C(OC3CCC4(C)C(CCC5(C)C4CC=C4C6CC(C)(C)CCC6(CO)C(O)CC45C)C3(C)C)OC(C(=O)O)C(OC3OC(COC4OC(CO)C(O)C(O)C4O)C(O)C(O)C3O)C2O)C(O)C(O)C1O` (stereo not drawn), the GI50 with CCRF-CEM leukemia was 3.88 µM; with IGROV1 ovarian it was 7.1 µM; with ACHN renal, 4.81 µM; with K-562 leukemia, 3.09 µM; with HCT-15 colon, 8.27 µM; in the assay with OVCAR-4 ovarian, 3.1 µM. Besides, the GI50 in the assay with SNB-19 CNS was 13.9 µM; in the assay with KM12 colon, 3.25 µM; in the assay on SK-MEL-5 melanoma, 11.5 µM; in the assay on CAKI-1 renal, 10.6 µM. Besides, the TGI in the assay with CCRF-CEM leukemia turned out to be 20.7 µM; with IGROV1 ovarian, 17.5 µM; in the assay on ACHN renal, 16.8 µM; in the assay on K-562 leukemia, 15.4 µM; in the assay with HCT-15 colon it was 18.8 µM; in the assay with OVCAR-4 ovarian, 12.8 µM. The TGI in the assay with SNB-19 CNS stood at 28 µM; in the assay on KM12 colon, 14.1 µM; in the assay with SK-MEL-5 melanoma, 22.2 µM; in the assay on CAKI-1 renal, 22.1 µM.
For `CCOc1ccc(NC(=O)/C(=C/c2ccccc2)C(C)=O)cc1`, the TGI in the assay with CCRF-CEM leukemia stood at 10.5 µM; in the assay on IGROV1 ovarian, 29.1 µM; in the assay on ACHN renal, 35.3 µM; in the assay with K-562 leukemia, 41.4 µM; with HCT-15 colon it was 32.4 µM; in the assay on OVCAR-4 ovarian it was 27.5 µM. For the same compound, the TGI in the assay on SNB-19 CNS was 24.9 µM; in the assay with KM12 colon it was 27.5 µM; in the assay with SK-MEL-5 melanoma it was 25.6 µM; with CAKI-1 renal it was 25.3 µM.
Take `Cn1cccc1C1CC(=O)N(CCC[Se]C#N)C1=O` (stereo not drawn): the GI50 was 2.22 µM in the assay on CCRF-CEM leukemia; 1.86 µM in the assay with IGROV1 ovarian; 2.11 µM in the assay on ACHN renal; 3.2 µM in the assay with K-562 leukemia; 2.35 µM with HCT-15 colon; 2.35 µM in the assay on OVCAR-4 ovarian. For the same compound, the GI50 with SNB-19 CNS was 1.62 µM; in the assay with KM12 colon, 2.11 µM; with SK-MEL-5 melanoma, 1.96 µM; in the assay on CAKI-1 renal, 1.92 µM. For the same compound, the TGI with CCRF-CEM leukemia stood at 7.66 µM; in the assay on IGROV1 ovarian it was 4.68 µM; with ACHN renal, 4.4 µM; in the assay with K-562 leukemia, 29.9 µM; with HCT-15 colon it was 6.43 µM; with OVCAR-4 ovarian, 14 µM. The TGI in the assay on SNB-19 CNS was 3.08 µM; in the assay on KM12 colon it was 5.36 µM; in the assay on SK-MEL-5 melanoma, 4.05 µM; in the assay with CAKI-1 renal it was 3.57 µM.
Take `O=[N+]([O-])c1ccc([I+]c2ccccc2)cc1`: the GI50 was 3.21 µM with CCRF-CEM leukemia; 5.15 µM in the assay with ACHN renal; 8.9 µM with HCT-15 colon; 1.67 µM with OVCAR-4 ovarian; 1.63 µM in the assay with SNB-19 CNS; 1.67 µM with KM12 colon. In addition, the results for the GI50 in the assay on SK-MEL-5 melanoma and in the assay with CAKI-1 renal were 1.54 µM and 0.289 µM, respectively. Besides, the TGI is > 100 µM and 10.9 µM in the assay on CCRF-CEM leukemia; 35.3 µM with IGROV1 ovarian; > 31.6 µM and 18.5 µM with ACHN renal; more than 53.2 µM in the assay with K-562 leukemia; 18.3 µM and 23.4 µM in the assay with HCT-15 colon; 11.9 µM and 3.69 µM in the assay with OVCAR-4 ovarian. Moreover, the TGI is 9.99 µM and 3.03 µM in the assay with SNB-19 CNS; 9.64 µM and 3.15 µM in the assay with KM12 colon; 21.2 µM and 2.93 µM with SK-MEL-5 melanoma; 15 µM and 1.58 µM with CAKI-1 renal.
As to `COc1ccccc1NS(=O)(=O)c1cc(C(C)(C)C)ccc1OCCOc1ccc(C(C)(C)C)cc1S(=O)(=O)Nc1ccccc1OC`, the TGI in the assay on CCRF-CEM leukemia, in the assay on IGROV1 ovarian, in the assay on ACHN renal, with K-562 leukemia, with HCT-15 colon and in the assay with OVCAR-4 ovarian was more than 100 µM throughout. Moreover, the TGI in the assay with SNB-19 CNS, in the assay on KM12 colon, in the assay with SK-MEL-5 melanoma and with CAKI-1 renal was more than 100 µM each time.
With `CC(=O)C(CN1CCOCC1)C(c1ccccc1)c1c(O)c2ccccc2oc1=O` (stereo not drawn), the TGI in the assay with CCRF-CEM leukemia, in the assay on IGROV1 ovarian, in the assay with ACHN renal, in the assay with K-562 leukemia, in the assay with HCT-15 colon and in the assay with OVCAR-4 ovarian was more than 100 µM in each case. The TGI with SNB-19 CNS, with KM12 colon, with SK-MEL-5 melanoma and in the assay with CAKI-1 renal was more than 100 µM each time.
Take `COc1cc2c(c(Br)c1N)-c1cc(Br)c(N)cc1C2=O`: the GI50 in the assay on CCRF-CEM leukemia was more than 100 µM; in the assay on IGROV1 ovarian it was 0.205 µM; with ACHN renal, more than 100 µM; in the assay with K-562 leukemia it was more than 100 µM; with HCT-15 colon, more than 100 µM; in the assay with OVCAR-4 ovarian, 1.77 µM. The GI50 in the assay with SNB-19 CNS is more than 100 µM; with KM12 colon it was more than 85.1 µM; in the assay on SK-MEL-5 melanoma, 5.39 µM; in the assay on CAKI-1 renal, more than 100 µM. Moreover, the TGI in the assay with CCRF-CEM leukemia, with IGROV1 ovarian, in the assay with ACHN renal, in the assay on K-562 leukemia, in the assay on HCT-15 colon and in the assay on OVCAR-4 ovarian was more than 100 µM throughout. The TGI in the assay on SNB-19 CNS, with KM12 colon, in the assay with SK-MEL-5 melanoma and in the assay with CAKI-1 renal was more than 100 µM in each case.
As for `Cc1ccc2c(c1)/C(=N\N=C/c1cn(C(C)C)c3ccccc13)C(=O)N2`, the GI50 in the assay on CCRF-CEM leukemia was 0.367 µM; in the assay with IGROV1 ovarian, 1.37 µM; with ACHN renal, 2.95 µM; in the assay with K-562 leukemia, 1.96 µM; in the assay with HCT-15 colon, 2.12 µM; with OVCAR-4 ovarian, 0.277 µM. In addition, the GI50 in the assay on SNB-19 CNS was 7.18 µM; in the assay with KM12 colon, 5.5 µM; in the assay on SK-MEL-5 melanoma, 4.57 µM; in the assay on CAKI-1 renal it was 2.6 µM. For the same compound, the TGI in the assay on CCRF-CEM leukemia, in the assay with IGROV1 ovarian, in the assay on ACHN renal, in the assay with K-562 leukemia, with HCT-15 colon and in the assay on OVCAR-4 ovarian was more than 100 µM in each case. The TGI with SNB-19 CNS, in the assay on KM12 colon, in the assay on SK-MEL-5 melanoma and with CAKI-1 renal was more than 100 µM in each case.
